Results published in ChEMBL document CHEMBL1127995, “Synthesis and structure-activity relationships of pyrrolidine-modified analogs of the potent cholinergic channel activator, ABT 418” (Bioorg Med Chem Lett, 1994).
pKi: −log10 of the molar value.

Assays:
[1] = molecular target: Neuronal acetylcholine receptor; alpha4/beta2 (Rattus norvegicus, UniProt P09483+P12390); assay: Binding affinity for Nicotinic acetylcholine receptor alpha4-beta2 by displacement of [3H](-)-cytisine from whole rat brain membranes; format: cell membranes, Membrane
[2] = In vitro half life was determined; format: ADME

Sequence of Neuronal acetylcholine receptor; alpha4/beta2 (P09483 whole entry): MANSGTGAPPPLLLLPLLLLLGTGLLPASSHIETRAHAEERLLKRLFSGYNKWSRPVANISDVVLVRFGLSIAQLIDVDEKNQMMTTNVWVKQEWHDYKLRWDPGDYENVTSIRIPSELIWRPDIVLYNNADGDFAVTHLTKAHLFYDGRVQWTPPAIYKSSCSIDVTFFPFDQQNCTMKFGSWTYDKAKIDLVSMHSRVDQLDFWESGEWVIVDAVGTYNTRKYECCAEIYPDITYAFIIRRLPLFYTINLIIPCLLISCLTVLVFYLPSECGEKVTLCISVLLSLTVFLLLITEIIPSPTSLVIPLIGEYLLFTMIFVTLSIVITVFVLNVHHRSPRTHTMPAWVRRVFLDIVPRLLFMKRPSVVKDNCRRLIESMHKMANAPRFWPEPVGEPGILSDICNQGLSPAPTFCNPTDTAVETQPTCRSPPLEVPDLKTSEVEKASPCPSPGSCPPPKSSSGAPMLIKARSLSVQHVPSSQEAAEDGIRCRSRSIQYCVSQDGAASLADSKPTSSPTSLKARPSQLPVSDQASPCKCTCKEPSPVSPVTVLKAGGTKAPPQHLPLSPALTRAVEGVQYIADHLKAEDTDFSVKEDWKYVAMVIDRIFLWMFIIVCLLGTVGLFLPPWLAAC
Sequence of Neuronal acetylcholine receptor; alpha4/beta2 (P12390 whole entry): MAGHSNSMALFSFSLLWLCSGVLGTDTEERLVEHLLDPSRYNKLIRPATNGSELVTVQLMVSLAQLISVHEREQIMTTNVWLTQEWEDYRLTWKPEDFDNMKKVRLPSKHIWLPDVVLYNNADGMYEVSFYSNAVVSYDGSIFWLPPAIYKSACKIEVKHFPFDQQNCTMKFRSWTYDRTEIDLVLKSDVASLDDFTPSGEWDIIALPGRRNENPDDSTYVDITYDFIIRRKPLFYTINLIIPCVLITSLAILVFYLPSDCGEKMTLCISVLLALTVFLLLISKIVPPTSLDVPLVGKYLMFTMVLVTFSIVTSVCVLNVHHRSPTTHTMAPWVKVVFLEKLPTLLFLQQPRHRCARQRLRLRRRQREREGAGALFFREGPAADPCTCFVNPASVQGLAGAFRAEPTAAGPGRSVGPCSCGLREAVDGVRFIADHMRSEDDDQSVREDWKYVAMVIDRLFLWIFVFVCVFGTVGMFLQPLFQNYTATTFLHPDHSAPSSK

SMILES	pKi [1]	half-life [2]
COC(=O)CC1CC[C@@H](c2cc(C)no2)N1C (some centres undefined)	5.46	
Cc1cc([C@@H]2C(C)CCN2C)on1 (single isomer, unassigned)	< 5.00	
Cc1cc([C@@H]2CC[C@H](c3ccccc3)N2C)on1	< 5.00	
Cc1cc([C@@H]2CC[C@@H](C)N2C)on1	7.15	26 min
CCCC[C@@H]1CC[C@@H](c2cc(C)no2)N1C	5.99	
Cc1cc([C@@H]2CCCN2C)on1 [ABT-418]	8.52	47.3 min
Cc1cc([C@@H]2CC[C@H](C)N2C)on1	5.30	48.3 min
CCCC[C@H]1CC[C@@H](c2cc(C)no2)N1C	5.44	
Cc1cc([C@@H]2CC[C@@H](c3ccccc3)N2C)on1	5.10	
Cc1cc([C@@H]2[C@@H](CO)CCN2C)on1	< 5.00	
Cc1cc([C@@H]2C(COC(=S)Oc3ccccc3)CCN2C)on1 (single isomer, unassigned)	6.08	
